Measured values reported in US6867207B2, “IL-5 inhibiting 6-azauracil derivatives” (Janssen Pharmaceutica N.V., priority 1997, dated 2005).
Marks after values point to notes of the source that are not given here.

Each compound was assayed on IL-5 production (assay: In vitro inhibition of IL-5 production in human blood (phytohemagglutinin-stimulated whole blood, ELISA)). Conditions: test dose 1×10^−5 M (values marked *), 48 hours.
Format: cell-based
Method in brief: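 Heparinised blood from healthy male donors, diluted threefold in RPMI 1640, preincubated 60 min at 37° C with compound (0.02% DMSO vehicle), then stimulated with 2 μg/mL phytohemagglutinin for 48 h. Supernatant IL-5 measured by ELISA; percentage inhibition at 1×10^−6 M or 1×10^−5 M.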

For `Cc1cc(O)nc(SC(c2ccc(Cl)cc2)c2ccc(-n3ncc(=O)[nH]c3=O)cc2Cl)n1` (racemic) [Compound 60], the “% inh. (percentage inhibition of IL-5 production), marked with *” value was 24* %.

Same assay, conditions: test dose 1×10^−6 M, 48 hours

Compared with `O=c1cnn(-c2cc(Cl)c(C(c3ccc(Cl)cc3)c3nc(-c4ccc(O)cc4)cs3)c(Cl)c2)c(=O)[nH]1` (racemic) [Comp 26], `O=c1cnn(-c2cc(Cl)c(C(c3ccc(Cl)cc3)c3nc(-c4cccc(F)c4)cs3)c(Cl)c2)c(=O)[nH]1` (single isomer, unassigned) [Comp 319] is lower in “% inh. (percentage inhibition of IL-5 production)” value: 85% for the first, 84% for the second.

Compared with `O=c1cnn(-c2ccc(C(c3ccc(Cl)cc3)c3sc(-c4ccccc4Cl)nc3-c3ccccc3Cl)c(Cl)c2)c(=O)[nH]1` (racemic) [Compound 151], `Cc1nc(-c2ccccc2Cl)c(C(c2ccc(Cl)cc2)c2c(Cl)cc(-n3ncc(=O)[nH]c3=O)cc2Cl)s1` (racemic) [Compound 135] is higher in “% inh. (percentage inhibition of IL-5 production)” value: 17% for the first, 88% for the second.

First: Cc1sc(C(c2ccc(Cl)cc2)c2c(Cl)cc(-n3ncc(=O)[nH]c3=O)cc2Cl)nc1-c1cccc(F)c1 (racemic) [Comp 287]
Second: Cc1sc(-c2cccc(F)c2)nc1C(c1ccc(Cl)cc1)c1c(Cl)cc(-n2ncc(=O)[nH]c2=O)cc1Cl (racemic) [Compound 370]
The “% inh. (percentage inhibition of IL-5 production)” value of the first is higher: 94% for the first, 76% for the second.

Going from `O=c1cnn(-c2cc(Cl)c(C(c3ccc(Cl)cc3)c3nnc(-c4ccccc4)o3)c(Cl)c2)c(=O)[nH]1` (racemic) [Compound 127, (±)-2-[3,5-dichloro-4-[(4-chlorophenyl)(5-phenyl-1,3,4-oxadizol-2-yl)methyl]-phenyl]-1,2,4-triazine-3,5(2H,4H)-dione] to `Cc1ccccc1-c1nnc(C(c2ccc(Cl)cc2)c2c(Cl)cc(-n3ncc(=O)[nH]c3=O)cc2Cl)o1` (racemic) [Compound 188], the “% inh. (percentage inhibition of IL-5 production)” value rises from 94% to 95%.

Compared with `COCCNC(=O)Cc1sc(C(c2ccc(Cl)cc2)c2c(Cl)cc(-n3ncc(=O)[nH]c3=O)cc2Cl)nc1-c1ccccc1` (racemic) [Comp 320], `CN(C)CCNC(=O)Cc1sc(C(c2ccc(Cl)cc2)c2c(Cl)cc(-n3ncc(=O)[nH]c3=O)cc2Cl)nc1-c1ccccc1` (racemic) [Comp 317] is lower in “% inh. (percentage inhibition of IL-5 production)” value: 94% for the first, 67% for the second.

First: O=c1cnn(-c2cc(Cl)c(C(Sc3nccc(N(CCO)CCO)n3)c3ccc(Cl)cc3)c(Cl)c2)c(=O)[nH]1 (racemic) [Compound 358]
Second: O=c1cnn(-c2cc(Cl)c(C(Sc3nccc(N4CCOCC4)n3)c3ccc(Cl)cc3)c(Cl)c2)c(=O)[nH]1 (racemic) [Compound 349]
The “% inh. (percentage inhibition of IL-5 production)” value of the first is lower: 63% for the first, 87% for the second.

First: Cc1nc(-c2ccccc2)c(C(c2ccc(Cl)cc2)c2ccc(-n3ncc(=O)[nH]c3=O)cc2)s1 (racemic) [Compound 146]
Second: COc1cc(-n2ncc(=O)[nH]c2=O)ccc1C(c1ccc(Cl)cc1)c1sc(C)nc1-c1ccccc1 (racemic) [Compound 153]
The “% inh. (percentage inhibition of IL-5 production)” value of the first is higher: 83% for the first, 72% for the second.

Going from `COc1cccc(-c2nnc(C(c3ccc(Cl)cc3)c3c(Cl)cc(-n4ncc(=O)[nH]c4=O)cc3Cl)o2)c1` (racemic) [Compound 170] to `CN(C)c1cccc(-c2nnc(C(c3ccc(Cl)cc3)c3c(Cl)cc(-n4ncc(=O)[nH]c4=O)cc3Cl)o2)c1` (racemic) [Compound 182], the “% inh. (percentage inhibition of IL-5 production)” value rises from 62% to 75%.

First: O=c1cnn(-c2cc(Cl)c(C(c3ccc(Cl)cc3)c3cccnc3)c(Cl)c2)c(=O)[nH]1 (stereo not shown) [Comp 116]
Second: O=c1cnn(-c2cc(Cl)c(C(c3ccc(Cl)cc3)c3ncc(-c4ccccc4)o3)c(Cl)c2)c(=O)[nH]1 (racemic) [Comp 105]
The “% inh. (percentage inhibition of IL-5 production)” value of the first is lower: 74% for the first, 88% for the second.

First: CCOC(=O)Cc1sc(C(c2ccc(Cl)cc2)c2c(Cl)cc(-n3ncc(=O)[nH]c3=O)cc2Cl)nc1-c1ccccc1 (racemic) [Comp 256]
Second: CCc1sc(C(c2ccc(Cl)cc2)c2c(Cl)cc(-n3ncc(=O)[nH]c3=O)cc2Cl)nc1-c1ccccc1 (racemic) [Comp 224]
The “% inh. (percentage inhibition of IL-5 production)” value of the first is lower: 94% for the first, 95% for the second.

First: O=c1cnn(-c2ccc(C(Sc3cccc[n+]3[O-])c3ccc(Cl)cc3)c(Cl)c2)c(=O)[nH]1 (racemic) [Compound 73]
Second: O=c1cnn(-c2ccc(C(Sc3ccc(C(F)(F)F)cn3)c3ccc(Cl)cc3)c(Cl)c2)c(=O)[nH]1 (stereo not shown) [Compound 88]
The “% inh. (percentage inhibition of IL-5 production)” value of the first is lower: 21% for the first, 26% for the second.

Going from `Cc1nnc(SC(c2ccc(Cl)cc2)c2ccc(-n3ncc(=O)[nH]c3=O)cc2Cl)s1` (racemic) [Compound 56] to `COc1ccc(-c2ccnc(SC(c3ccc(Cl)cc3)c3ccc(-n4ncc(=O)[nH]c4=O)cc3Cl)n2)cc1` (racemic) [Compound 79], the “% inh. (percentage inhibition of IL-5 production)” value rises from 41% to 74%.

Compared with `O=c1cnn(-c2cc(Cl)c(C(c3ccc(Cl)cc3)c3nc(Cc4ccccc4)cs3)c(Cl)c2)c(=O)[nH]1` (racemic) [Comp 225], `O=c1cnn(-c2cc(Cl)c(C(c3ccc(Cl)cc3)c3nc(-c4ccco4)cs3)c(Cl)c2)c(=O)[nH]1` (racemic) [Comp 236] is higher in “% inh. (percentage inhibition of IL-5 production)” value: 80% for the first, 92% for the second.

First: CC(=O)Nc1ccc(SC(c2ccc(Cl)c(C(F)(F)F)c2)c2c(Cl)cc(-n3ncc(=O)[nH]c3=O)cc2Cl)cc1 (racemic) [Compound 398]
Second: O=c1cnn(-c2cc(Cl)c(C(Sc3ccccn3)c3ccc(Cl)c(C(F)(F)F)c3)c(Cl)c2)c(=O)[nH]1 (stereo not shown) [Compound 378]
The “% inh. (percentage inhibition of IL-5 production)” value of the first is higher: 96% for the first, 91% for the second.

First: CN(CCc1ccccc1)Cc1sc(C(c2ccc(Cl)cc2)c2c(Cl)cc(-n3ncc(=O)[nH]c3=O)cc2Cl)nc1-c1ccccc1 (racemic) [Comp 332]
Second: O=c1cnn(-c2cc(Cl)c(C(c3ccc(Cl)cc3)c3nc(-c4ccccc4)c(CNS(=O)(=O)Cc4ccccc4)s3)c(Cl)c2)c(=O)[nH]1 (racemic) [Comp 336]
The “% inh. (percentage inhibition of IL-5 production)” value of the first is lower: 86% for the first, 88% for the second.

`O=c1cnn(-c2cc(Cl)c(C(c3ccc(Cl)cc3)c3nnc(-c4ccco4)o3)c(Cl)c2)c(=O)[nH]1` (racemic) [Compound 161] and `O=c1cnn(-c2cc(Cl)c(C(c3ccc(Cl)cc3)c3nnc(-c4ccccc4F)o3)c(Cl)c2)c(=O)[nH]1` (racemic) [Compound 156] are the same in “% inh. (percentage inhibition of IL-5 production)” value: 91% for the first, 91% for the second.

Going from `Cn1cc(-c2ccccc2)nc1C(c1ccc(Cl)cc1)c1c(Cl)cc(-n2ncc(=O)[nH]c2=O)cc1Cl` (stereo not shown) [Comp 425] to `Cc1nc(-c2ccccc2)c(C(c2ccc(Cl)cc2)c2c(Cl)cc(-n3ncc(=O)[nH]c3=O)cc2Cl)s1` (racemic) [Compound 136], the “% inh. (percentage inhibition of IL-5 production)” value rises from 70% to 93%.

First: O=c1cnn(-c2cc(Cl)c(C(Sc3nc4ccccc4o3)c3ccc(Cl)c(C(F)(F)F)c3)c(Cl)c2)c(=O)[nH]1 (stereo not shown) [Compound 379]
Second: COc1cc(C(c2nc(-c3ccccc3)cs2)c2c(Cl)cc(-n3ncc(=O)[nH]c3=O)cc2Cl)ccc1Cl (racemic) [Comp 289]
The “% inh. (percentage inhibition of IL-5 production)” value of the first is lower: 95% for the first, 96% for the second.

Compared with `CCc1sc(C(c2ccc(Cl)cc2)c2c(Cl)cc(-n3ncc(=O)[nH]c3=O)cc2Cl)nc1-c1ccccc1F` (racemic) [Comp 261], `O=c1cnn(-c2cc(Cl)c(C(c3ccc(Cl)cc3)c3nc(-c4cc(F)ccc4F)cs3)c(Cl)c2)c(=O)[nH]1` (racemic) [Comp 290] is lower in “% inh. (percentage inhibition of IL-5 production)” value: 93% for the first, 92% for the second.

Compared with `Cl.O=c1cnn(-c2ccc(C(NCCc3ccco3)c3ccc(Cl)cc3)c(Cl)c2)c(=O)[nH]1` (racemic) [Compound 43], `O=c1cnn(-c2ccc(C(NC3CCCCC3)c3ccc(Cl)cc3)c(Cl)c2)c(=O)[nH]1` (racemic) [Compound 46] is higher in “% inh. (percentage inhibition of IL-5 production)” value: 37% for the first, 64% for the second.

Going from `CCOC(=O)C(=O)Nc1cccc(-c2nnc(C(c3ccc(Cl)cc3)c3c(Cl)cc(-n4ncc(=O)[nH]c4=O)cc3Cl)o2)c1.O` (racemic) [Compound 219] to `O=c1cnn(-c2cc(Cl)c(C(c3ccc(Cl)cc3)c3nnc(-c4ccccc4[N+](=O)[O-])o3)c(Cl)c2)c(=O)[nH]1` (racemic) [Compound 210], the “% inh. (percentage inhibition of IL-5 production)” value rises from 8% to 79%.

Going from `CC(c1ccc(Cl)cc1)(c1nc(-c2ccccc2)c(-c2ccccc2)s1)c1c(Cl)cc(-n2ncc(=O)[nH]c2=O)cc1Cl` (racemic) [Comp 18] to `CN1CCC(Nc2ccnc(SC(c3ccc(Cl)cc3)c3c(Cl)cc(-n4ncc(=O)[nH]c4=O)cc3Cl)n2)CC1.Cl.O` (racemic) [Compound 354], the “% inh. (percentage inhibition of IL-5 production)” value falls from 88% to 70%.

Same assay, conditions: test dose 1×10^−6 M, 48 hours, read-out: % inh. (percentage inhibition of IL-5 production)

Going from `O=c1cnn(-c2cc(Cl)c(C(Sc3nccc(NCCO)n3)c3ccc(Cl)cc3)c(Cl)c2)c(=O)[nH]1` (racemic) [Compound 357, (±)-2-[3,5-dichloro-4-[(4-chlorophenyl)[[4-[(2-hydroxyethyl)amino]-2-pyrimidinyl]-thio]methyl]phenyl]-1,2,4-triazine-3,5(2H,4H)-dione] to `O=c1cnn(-c2cc(Cl)c(C(c3ccc(Cl)cc3)c3nccs3)c(Cl)c2)c(=O)[nH]1` (racemic) [Compound 39, (±)-2-[3,5-dichloro-4-[(4-chlorophenyl)-2-thiazolylmethyl]-phenyl]-1,2,4-triazine-3,5(2H,4H)-dione], the inhibition at 1 µM falls from 69% to 68%.

Going from `NC(c1ccc(Cl)cc1)(c1nccs1)c1ccc(-n2ncc(=O)[nH]c2=O)cc1Cl` (racemic) [Compound 35, (±)-2-[3-chloro-4-[amino-(4-chlorophenyl)-2-thiazolylmethyl]phenyl]-1,2,4-triazine-3,5(2H,4H)-dione] to `CC(C)COC(c1ccc(Cl)cc1)c1ccc(-n2ncc(=O)[nH]c2=O)cc1Cl` (racemic) [Compound 133, (±)-2-[3-chloro-4-[(4-chloro-phenyl)(2-methylpropoxy)methyl]phenyl]-1,2,4-triazine-3,5(2H,4H)-dione], the inhibition at 1 µM falls from 56% to 50%.
